Reference: patent publication US12492173B2, “Herbicidal substituted N-tetrazolyl aryl carboxamides” (Bayer Aktiengesellschaft, priority 2019, dated 2025)

Columns and labels:
Format in all cases: in vivo
Veronica persica = assay: Post-emergence herbicidal action, VERPE; set-up: key: % herbicidal action vs untreated; 100 = plants died, 0 = like control
Outline: (§1)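 After sowing into sandy loam, plants grew 2 to 3 weeks under greenhouse conditions until one leaf, then got a spray of compound as aqueous suspension or emulsion. Roughly three weeks on, activity was estimated visually against untreated pots.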

Pharbitis purpurea = assay: Post-emergence herbicidal action, PHBPU
Outline: as §1

Amaranthus retroflexus [1] = assay: Pre-emergence herbicidal action, AMARE; conditions: dosage 320 g/ha; for herbicidal activity AMARE: scored visually after 3 weeks vs untreated controls (100% = plants have died)
Outline: (§2)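 Application took place on the soil surface immediately after sowing into sandy loam, using aqueous WP or EC preparations with 0.2% wetting agent. Visual percent scoring followed 3 weeks later, untreated pots serving as reference.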

Abutilon theophrasti = assay: Pre-emergence herbicidal action, ABUTH; conditions: dosage 320 g/ha; for herbicidal activity ABUTH: scored visually after 3 weeks vs untreated controls (100% = plants have died)
Outline: as §2

Amaranthus retroflexus [2] = assay: Post-emergence herbicidal action, AMARE; set-up: key: % herbicidal action vs untreated; 100 = plants died, 0 = like control
Outline: as §1

Stellaria media = assay: Post-emergence herbicidal action, STEME; set-up: key: % herbicidal action vs untreated; 100 = plants died, 0 = like control
Outline: as §1

## CCSCc1c(C(F)F)ccc(C(=O)Nc2nnnn2CC)c1Cl [Example 2-323]
Veronica persica; post-emergence, dosage 80 g/ha
  herbicidal action VERPE: 100%
Pharbitis purpurea; post-emergence, dosage 80 g/ha
  herbicidal action PHBPU: 90%
Amaranthus retroflexus [1]
  herbicidal activity AMARE: 100%
Abutilon theophrasti
  herbicidal activity ABUTH: 100%
Amaranthus retroflexus [2]; post-emergence, dosage 80 g/ha
  herbicidal action AMARE: 80%
Stellaria media; post-emergence, dosage 80 g/ha
  herbicidal action STEME: 100%

## CCn1nnnc1NC(=O)c1ccc(C(F)F)c(C[S+]([O-])CC)c1Cl (stereo not drawn) [Example 2-324]
Veronica persica; post-emergence, dosage 80 g/ha
  herbicidal action VERPE: 100%
Pharbitis purpurea; post-emergence, dosage 80 g/ha
  herbicidal action PHBPU: 100%
Amaranthus retroflexus [1]
  herbicidal activity AMARE: 100%
Abutilon theophrasti
  herbicidal activity ABUTH: 100%
Amaranthus retroflexus [2]; post-emergence, dosage 80 g/ha
  herbicidal action AMARE: 100%
Stellaria media; post-emergence, dosage 80 g/ha
  herbicidal action STEME: 100%

## CCn1nnnc1NC(=O)c1ccc(C(F)F)c(CS(=O)(=O)CC)c1Cl [Example 2-325]
Veronica persica; Dosage 80 g/ha
  herbicidal action VERPE: 90
Pharbitis purpurea; Dosage 80 g/ha
  herbicidal action PHBPU: 90
Amaranthus retroflexus [1]
  herbicidal activity AMARE: 100%
Abutilon theophrasti
  herbicidal activity ABUTH: 100%
Amaranthus retroflexus [2]; Dosage 80 g/ha
  herbicidal action AMARE: 90
Stellaria media; Dosage 80 g/ha
  herbicidal action STEME: 100

## CCn1nnnc1NC(=O)c1ccc(I)c(C[S+](C)[O-])c1Cl (stereo not drawn) [Example 2-363]
Veronica persica; Dosage 80 g/ha
  herbicidal action VERPE: 100
Pharbitis purpurea; Dosage 80 g/ha
  herbicidal action PHBPU: 90
Amaranthus retroflexus [1]
  herbicidal activity AMARE: 100%
Abutilon theophrasti
  herbicidal activity ABUTH: 100%
Amaranthus retroflexus [2]; Dosage 80 g/ha
  herbicidal action AMARE: 100
Stellaria media; Dosage 80 g/ha
  herbicidal action STEME: 100

## CCn1nnnc1NC(=O)c1ccc(C(F)(F)F)c(C[S+]([O-])CC)c1Br (stereo not drawn) [Example 2-384]
Veronica persica; post-emergence, dosage 80 g/ha
  herbicidal action VERPE: 100%
Pharbitis purpurea; post-emergence, dosage 80 g/ha
  herbicidal action PHBPU: 90%
Amaranthus retroflexus [1]
  herbicidal activity AMARE: 100%
Abutilon theophrasti
  herbicidal activity ABUTH: 100%
Amaranthus retroflexus [2]; post-emergence, dosage 80 g/ha
  herbicidal action AMARE: 90%
Stellaria media; post-emergence, dosage 80 g/ha
  herbicidal action STEME: 100%

## CCn1nnnc1NC(=O)c1ccc(C(F)(F)F)c(CS(=O)(=O)CC)c1Br [Example 2-385]
Veronica persica; post-emergence, dosage 80 g/ha
  herbicidal action VERPE: 100%
Pharbitis purpurea; post-emergence, dosage 80 g/ha
  herbicidal action PHBPU: 80%
Amaranthus retroflexus [1]
  herbicidal activity AMARE: 100%
Abutilon theophrasti
  herbicidal activity ABUTH: 100%
Amaranthus retroflexus [2]; post-emergence, dosage 80 g/ha
  herbicidal action AMARE: 90%
Stellaria media; post-emergence, dosage 80 g/ha
  herbicidal action STEME: 100%

## CCn1nnnc1NC(=O)c1ccc(Cl)c(CSC)c1Cl [Example 2-559]
Veronica persica; Dosage 80 g/ha
  herbicidal action VERPE: 100
Pharbitis purpurea; Dosage 80 g/ha
  herbicidal action PHBPU: 100
Amaranthus retroflexus [1]
  herbicidal action AMARE: 100%
Abutilon theophrasti
  herbicidal action ABUTH: 100%
Amaranthus retroflexus [2]; Dosage 80 g/ha
  herbicidal action AMARE: 100
Stellaria media; Dosage 80 g/ha
  herbicidal action STEME: 100

## CCCn1nnnc1NC(=O)c1ccc(S(C)(=O)=O)c(CSC)c1C [Example 3-37]
Veronica persica; Dosage 80 g/ha
  herbicidal action VERPE: 100
Pharbitis purpurea; Dosage 80 g/ha
  herbicidal action PHBPU: 80
Amaranthus retroflexus [1]
  herbicidal action AMARE: 100%
Abutilon theophrasti
  herbicidal action ABUTH: 80%
Amaranthus retroflexus [2]; Dosage 80 g/ha
  herbicidal action AMARE: 100
Stellaria media; Dosage 80 g/ha
  herbicidal action STEME: 100

## CCCn1nnnc1NC(=O)c1ccc(S(C)(=O)=O)c(CS(C)(=O)=O)c1C [Example 3-39]
Veronica persica; Dosage 80 g/ha
  herbicidal action VERPE: 100
Pharbitis purpurea; Dosage 80 g/ha
  herbicidal action PHBPU: 90
Amaranthus retroflexus [1]
  herbicidal action AMARE: 100%
Abutilon theophrasti
  herbicidal action ABUTH: 100%
Amaranthus retroflexus [2]; Dosage 80 g/ha
  herbicidal action AMARE: 100
Stellaria media; Dosage 80 g/ha
  herbicidal action STEME: 90

## CCCn1nnnc1NC(=O)c1ccc(C(F)(F)F)c(CSC)c1SC [Example 3-161]
Veronica persica; Dosage 80 g/ha
  herbicidal action VERPE: 100
Pharbitis purpurea; Dosage 80 g/ha
  herbicidal action PHBPU: 90
Amaranthus retroflexus [1]
  herbicidal action AMARE: 100%
Abutilon theophrasti
  herbicidal action ABUTH: 100%
Amaranthus retroflexus [2]; Dosage 80 g/ha
  herbicidal action AMARE: 100
Stellaria media; Dosage 80 g/ha
  herbicidal action STEME: 100

## CCCn1nnnc1NC(=O)c1ccc(C(F)(F)F)c(C[S+](C)[O-])c1SC (stereo not drawn) [Example 3-162]
Veronica persica; post-emergence, dosage 80 g/ha
  herbicidal action VERPE: 100%
Pharbitis purpurea; post-emergence, dosage 80 g/ha
  herbicidal action PHBPU: 90%
Amaranthus retroflexus [1]
  herbicidal activity AMARE: 100%
Abutilon theophrasti
  herbicidal activity ABUTH: 100%
Amaranthus retroflexus [2]; post-emergence, dosage 80 g/ha
  herbicidal action AMARE: 100%
Stellaria media; post-emergence, dosage 80 g/ha
  herbicidal action STEME: 100%

## CCCn1nnnc1NC(=O)c1ccc(C(F)(F)F)c(CS(C)(=O)=O)c1SC [Example 3-163]
Veronica persica; Dosage 80 g/ha
  herbicidal action VERPE: 100
Pharbitis purpurea; Dosage 80 g/ha
  herbicidal action PHBPU: 90
Amaranthus retroflexus [1]
  herbicidal activity AMARE: 100%
Abutilon theophrasti
  herbicidal activity ABUTH: 100%
Amaranthus retroflexus [2]; Dosage 80 g/ha
  herbicidal action AMARE: 90
Stellaria media; Dosage 80 g/ha
  herbicidal action STEME: 100
